The text below walks through data of patent US12077508B2, “Inhibitors of the Notch transcriptional activation complex kinase (“NACK”) and methods for use of the same” (UNIVERSITY OF MIAMI, priority 2018, dated 2024).

One data set in a line: Plasma pharmacokinetics. Type of data set: in vivo, male C57 BL/6 mice. Particulars: for Tmax: ip. An excerpt: The plasma pharmacokinetic profile of Z271-0326 was investigated following a single intravenous and intraperitoneal dose administration in male C57 BL/6 mice (FIG. 12). […] The Vss was similar to the normal volume of total body water (0.7 L/kg). The Vss is a pharmacokinetic parameter, which represents the volume distribution of a drug in the body tissue. […] This dose was MTD for the 4-week efficacy studies shown in preliminary data.
The plasma pharmacokinetic profile of Z271-0326 was investigated following a single intravenous and intraperitoneal dose administration in male C57 BL/6 mice.

The test system of another data set is OE33 spheres. The experiment in a line: Tumor sphere formation assay in OE33. The data set is classed as cell-based, human. How it is done:
In order to assess the effect of hit to lead compounds on the proliferation of stem cell like population of Notch/NACK dependent cells, the primary tumor spheres were treated with NACK inhibitor and allow the cells to be propagated as secondary cultures. To obtain tumor spheres, cells were cultured in DMEM/F12 with 2% B-27 serum-free supplement (17604-044; Invitrogen), 20 ng/mL epidermal growth factor (EGF; PHG0311L; Invitrogen), and 20 ng/mL basic fibroblastic growth factor (bFGF; PHG0266; Invitrogen) for 14 days. Resulting tumor spheres were examined and counted under the microscope. Furthermore, the tumor spheres were collected for further RT-qPCR analysis to test the effect of hit to lead compounds on the stem like target genes.

A further data set deals with OE33 cells. Briefly: Senescence-associated β-galactosidase assay. Type of data set: cell-based, human. Particulars: treatment for 3 weeks, FIG. 9B. On the procedure:
After prolonged Z271-0326 or DAPT treatment for 3 weeks of live cells of OE33, cells were measured by senescence-associated β-galaotosidase activity according to the manufacture recommended protocol (Senescence β-Galaotosidase Staining Kit, Cell Signaling, #9860).

Another data set addresses LCK (Homo sapiens, UniProt P06239). The experiment in a line: ADP-Glo LCK kinase assay. Conditions: FIG. 17B. The data set is classed as biochemical. On the procedure: ADP-Glo kinase assay was performed using ADP-Glo™ Kinase Assay (Promega, V6930) according to the manufacture recommended protocol.
A general note: In ADP-Glo the light output rises with the ADP produced.

Another data set concerns Notch target genes. Briefly: RT-qPCR of Notch target genes in Notch/NACK-dependent cells. Type of data set: cell-based, human. Conditions: OE33; FIG. 6B. On the procedure: To assess the effect of NACK inhibitor on Notch target gene transcription, Notch/NACK-dependent cell lines were treated with NACK inhibitors. The cells were also treated with DAPT as a positive control. DMSO treated cells served as a vehicle control for comparison. Gene expression was normalized to HPRT, and TBP served as a negative control to validate normalization.
Reverse transcription and qPCR analysis were performed as described previously (See Weaver et al., Cancer Research 74, 4741-4751 (2014)). Gene expression was normalized to the TATA-binding protein (“TBP”) gene. As a control, hypoxanthine phosphoribosyltransferase 1 (“HPRT”) gene expression was also monitored.

In another data set the test system is HES1 promoter. The experiment in a line: Chromatin immunoprecipitation (ChIP) at the HES1 promoter in OE33. Type of data set: cell-based, human. Conditions: FIG. 8C. How it is done: Notch/NACK-dependent cells were treated with either DAPT as a positive control, DMSO (vehicle) as a negative control, or compounds for screening for 24 hours. After treatment, cells were cross-linked and sonicated to yield chromatin fragments of approximately 500 bp, as previously described (See Weaver et al., Cancer Research 74, 4741-4751 (2014)). Lysates were immunoprecipitated with either α-Notch1 (Bethyl Laboratories, Montgomery, TX; A301-894A), α-Maml1 (Cell Signaling, 12166s), α-NACK (Bethyl Laboratories, A302-675A), or α-PoIII pSer5 (Abcam, ab5131) antibodies. DNA immunoprecipitates were cleaned using the PCR purification Kit (Qiagen). DNA were detected by Syber green qPCR using HES1 specific oligonucleotide primers (forward: 5′CGTGTCTCCTCCTCCCATT3′ (SEQ ID NO: 2); reverse: 5′GGGGGATTCCGCTGTTAT3′ (SEQ ID NO:3)).

Another data set deals with OE33 cell line. The experiment in a line: Colony formation assay in OE33 cells. The data set is classed as cell-based, human. Conditions: for EC50: Homo sapiens, read-out: EC50 colony formation titration assay. On the procedure: A cell based colony formation assay was used in these experiments. Normal mouse mammary epithelia HC11 cells have little or no endogenous NACK expression, and NACK knockdown had no effect on the growth of HC11 cells (FIG. 5A, lower panel). […] Knockdown of NACK was confirmed by western blot and qPCR (FIGS. 1D and 1E). […] Therefore, compounds that affect OE33 colony formation but not HC11 were desired. In order to screen the compounds, cells were treated with test compounds every other day.
Colony formation assay was utilized to determine the effect of small molecule inhibitors on cell proliferation. In general, different cell lines (NACK dependent or independent) will be seeded in 6-well plates at a density of 2000 cells per well and allowed to attach overnight. Inhibitor treatment commenced 24 hours post seeding, and the media containing inhibitor was changed every 48 hours thereafter. After 168 hours, colonies were be stained with Crystal Violet (Millipore) and counted.

The structures appear in SMILES notation. Like-named read-outs stand apart in the source and are kept apart here.

Sequence of LCK (P06239 whole entry, species assumed): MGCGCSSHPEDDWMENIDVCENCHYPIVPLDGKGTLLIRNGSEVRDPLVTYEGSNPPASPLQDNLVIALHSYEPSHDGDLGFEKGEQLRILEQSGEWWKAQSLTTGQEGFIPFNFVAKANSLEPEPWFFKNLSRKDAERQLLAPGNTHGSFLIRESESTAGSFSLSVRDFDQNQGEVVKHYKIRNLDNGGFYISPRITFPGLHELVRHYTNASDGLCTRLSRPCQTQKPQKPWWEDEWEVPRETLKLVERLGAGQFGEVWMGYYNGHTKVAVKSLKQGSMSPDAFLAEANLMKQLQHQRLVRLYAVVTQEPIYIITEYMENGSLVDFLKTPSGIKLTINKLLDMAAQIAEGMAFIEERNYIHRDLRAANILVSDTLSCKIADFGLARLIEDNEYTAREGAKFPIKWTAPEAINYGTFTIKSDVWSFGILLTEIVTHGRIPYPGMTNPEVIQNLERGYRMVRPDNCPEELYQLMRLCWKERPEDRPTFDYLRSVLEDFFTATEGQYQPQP

Take `CCN(CC)C(=O)c1cnn2ccc(C3CCN(S(=O)(=O)c4ccc(NC(C)=O)cc4)CC3)cc12` [Compound Z271-0326, 5-(1-((4-acetamidophenyl)sulfonyl)piperidin-4-yl)-N,N-diethylpyrazolo[1,5-a]pyridine-3-carboxamide]: the Tmax (as a rule, the time from dosing to the highest level) in the data set “Plasma pharmacokinetics” (male, C57BL/6, mouse, plasma, single intraperitoneal 25 mg/kg) was found to be 15 min; in “Plasma pharmacokinetics” (male, C57BL/6, mouse, plasma, single intraperitoneal 100 mg/kg) it was 60 min. In “Plasma pharmacokinetics” (male, C57BL/6, mouse, plasma, single intravenous 5 mg/kg, read-out: systemic plasma clearance), the clearance – broadly, the volume of plasma or blood freed of the substance per unit of time – was 30 mL/min/kg. For the same molecule, in the data set “Plasma pharmacokinetics” (male, C57BL/6, mouse, plasma, single intravenous 5 mg/kg, read-out: terminal elimination half-life (converted)), the half-life – broadly, how long it takes for the measured level to halve – is 13.8 min. Besides, in the data set “Plasma pharmacokinetics” (male, C57BL/6, mouse, plasma, single intravenous 5 mg/kg, similar to total body water, read-out: Vss), the Vd is roughly 0.7 L/kg. In addition, the “time plasma concentrations quantifiable up to” value is recorded as “up to 4 hr” in “Plasma pharmacokinetics” (single intraperitoneal 25 mg/kg) and “up to 24 hr” in the data set “Plasma pharmacokinetics” (single intraperitoneal 100 mg/kg). In the data set with OE33 spheres (OE33, FIG. 7A), the secondary sphere formation result is on record as “decrease in the ability of cell spheres to form secondary spheres”. For the same molecule, the “Notch target genes transcription in spheres” value with OE33 spheres (OE33 spheres, FIG. 7B) is “affected Notch target genes HES1, MYC, CCND1 and NACK transcription”. Besides, in the data set with OE33 cells, the “cellular senescence (senescence-associated β-galactosidase activity)” value is recorded as “resulted in the induction of cellular senescence”. Moreover, the LCK kinase inhibition result on LCK is given as “meaningfully inhibits LCK”. Besides, the “mRNA levels of Notch target genes Hes1 and Notch3” value with Notch target genes was “decrease the mRNA levels of Notch target genes Hes1 and Notch3”. The “binding of N1ICD and NACK to the HES1 promoter” value with HES1 promoter (24 hours) was “abrogated the binding of N1ICD and NACK to the HES1 promoter”. In addition, the “Pol II pSer5 initiation complex formation at the HES1 promoter” value in the data set on HES1 promoter was “decreases the RNA polymerase initiation complex (Pol II pSer5) formation at the HES1 promoter”. Besides, the EC50 is 1.27 µM with OE33 cell line (OE33, OE33 cell line, FIG. 18) and 1.05 µM with OE33 cell line (OE33, estimated, FIG. 6C). Moreover, in the data set with OE33 cell line (cells treated every other day, FIGS. 5B, 5C), the OE33 colony formation entry was “effectively inhibit OE33 colony formation”.
